Common to all, as to type: cell-based
The target of assay [1] is T1, KRAS-G12D (Homo sapiens, UniProt P01116, G12D).
T1 construct: endogenous in cells; host or cells: A-427 (ATCC), AGS, AsPc-1, Panc 04.03
Put plainly: KRAS-G12D degradation assay (Western Blot), AGS cells. To be noted: 24 h. In a few lines:
(§1)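 Each KRAS G12D mutant line (A-427, AGS, AsPc-1, Panc 04.03) was seeded at 5×10^5 cells/well and treated 24 h at 37 °C with 0.03–3000 nM compound (final DMSO 0.25%). KRAS in lysates was measured by Western blot, normalized to β-actin and compared with controls, giving DC50 and Dmax from curve fits.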
(Immunoblotting shows a protein as a band on a membrane.)

Assay [2] has as its target T1, KRAS-G12D. Put plainly: KRAS-G12D degradation assay (Western Blot), AsPc-1 cells. To be noted: for DC50: 24 h; for Dmax: ASPC1, 24 h. The method in brief:
as §1

The target of assay [3] is T1, KRAS-G12D. The assay is described as follows: KRAS-G12D degradation assay (Western Blot), Panc 04.03 cells. To be noted: 24 h. In a few lines:
as §1

Assay [4] concerns KRAS G12D mutant human pancreatic cancer cell HPAC. The assay is described as follows: 3D cell proliferation inhibition assay, HPAC. To be noted: 168 h, 7 days, CTG. The method in brief:
(§2)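 IC50 values derive from nonlinear fits of log dose against percent inhibition of 7-day 3D proliferation. Readout: CTG luminescence. Plating density: 5×10^2 cells/well in low-adsorption plates. Dosing: 10000–0.026 nM final, 0.2% DMSO.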

Assay [5] concerns KRAS G12D mutant human metastatic pancreatic cancer cell AsPc-1. Put plainly: 3D cell proliferation inhibition assay, AsPc-1. The conditions noted are these: ASPC1, 168 h, AsPc-1, 7 days, CTG. In a few lines:
as §2

Assay [6] relates to KRAS G12D mutant human pancreatic cancer cell Panc 04.03. The assay is described as follows: 3D cell proliferation inhibition assay, Panc 04.03. To be noted: 168 h, Panc 04.03, 7 days, CTG. The method in brief:
as §2

One may read the DC50 as the midpoint of the concentration-degradation curve. In general, Dmax refers to the greatest extent of degradation seen. Low values mean shallow degradation, high ones deep degradation. As a reminder, the IC50 is the concentration needed to halve the response being measured. Lower therefore signals higher potency.

T1 sequence (P01116 1-188 isoform P01116-2 G12D): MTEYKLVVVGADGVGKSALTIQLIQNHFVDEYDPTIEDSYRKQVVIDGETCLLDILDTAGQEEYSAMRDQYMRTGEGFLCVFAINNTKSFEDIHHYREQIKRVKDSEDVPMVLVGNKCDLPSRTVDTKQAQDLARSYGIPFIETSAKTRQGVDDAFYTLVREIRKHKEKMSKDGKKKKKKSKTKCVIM

Turning to `C#Cc1c(F)ccc2cc(O)cc(-c3ncc4c(N5CC6CCC(C5)N6)nc(OCC5(CN6CCN(CC7CCC8(CC7)CCN(C(=O)c7ccc(Cl)c(N9CCC(=O)NC9=O)c7)CC8)CC6)CC5)nc4c3F)c12` [Example 6, 1-(5-(9-((4-((1-(((4-(3,8-diazabicyclo[3.2.1]octan-3-yl)-7-(8-ethynyl-7-fluoro-3-hydroxynaphthalen-1-yl)-8-fluoropyrido[4,3-d]pyrimidin-2-yl)oxy)methyl)cyclopropyl)methyl)piperazin-1-yl)methyl)-3-azaspiro[5.5]undecane-3-carbonyl)-2-chlorophenyl)dihydropyrimidine-2,4(1H,3H)-dione], the DC50 was 7.91 nM at KRAS-G12D [1], 2.9 nM at KRAS-G12D [2] and 21.7 nM at KRAS-G12D [3]. The results for the Dmax at KRAS-G12D [1], on KRAS-G12D [2] and on KRAS-G12D [3] were 100%, 100% and 99.9%, respectively. The midpoint of inhibition in assay [4], the IC50, lay at 5.35 nM.
For `CCc1c(F)ccc2cc(O)cc(-c3ncc4c(N5CC6CCC(C5)N6)nc(OCC5(CN6CCN(CC7CCC8(CC7)CCN(C(=O)c7ccc(OC)c(N9CCC(=O)NC9=O)c7)CC8)CC6)CC5)nc4c3F)c12` [Example 15, 1-(5-(9-((4-((1-(((4-(3,8-diazabicyclo[3.2.1]octan-3-yl)-7-(8-ethyl-7-fluoro-3-hydroxynaphthalen-1-yl)-8-fluoropyrido[4,3-d]pyrimidin-2-yl)oxy)methyl)cyclopropyl)methyl)piperazin-1-yl)methyl)-3-azaspiro[5.5]undecane-3-carbonyl)-2-methoxyphenyl)dihydropyrimidine-2,4(1H,3H)-dione], the DC50 on KRAS-G12D [1] came to 2.17 nM; at KRAS-G12D [2] it was 13 nM; on KRAS-G12D [3], 16.6 nM. Also, the Dmax at KRAS-G12D [1] amounted to 99.6%; on KRAS-G12D [2] it was 99.3%; at KRAS-G12D [3], 98.9%. Further, the IC50 in assay [5] (class symbols) was no more than 50 nM; in assay [6] (class symbols), no more than 50 nM; in assay [4], 4.06 nM.
With `CCc1cccc2cc(O)cc(-c3ncc4c(N5CC6CCC(C5)N6)nc(OCC5(CN6CCN(CC7CCC8(CC7)CCN(C(=O)c7ccc(OC)c(N9CCC(=O)NC9=O)c7)CC8)CC6)CC5)nc4c3F)c12` [Example 20, 1-(5-(9-((4-((1-(((4-(3,8-diazabicyclo[3.2.1]octan-3-yl)-7-(8-ethyl-3-hydroxynaphthalen-1-yl)-8-fluoropyrido[4,3-d]pyrimidin-2-yl)oxy)methyl)cyclopropyl)methyl)piperazin-1-yl)methyl)-3-azaspiro[5.5]undecane-3-carbonyl)-2-methoxyphenyl)dihydropyrimidine-2,4(1H,3H)-dione], the values for the DC50 at KRAS-G12D [1], at KRAS-G12D [2] and on KRAS-G12D [3] were 19.9 nM, 0.57 nM and 15.1 nM, respectively. Also, the Dmax on KRAS-G12D [1], on KRAS-G12D [2] and on KRAS-G12D [3] was 100% throughout. The IC50 is 3.27 nM in assay [5] (numeric values) and 10.5 nM in assay [6] (numeric values).
With `C#Cc1c(F)ccc2cc(O)cc(-c3ncc4c(N5CC6CCC(C5)N6)nc(OCC5(CN6CCN(CCCCC7CCC8(CC7)CCN(C(=O)c7ccc(Cl)c(N9CCC(=O)NC9=O)c7)CC8)CC6)CC5)nc4c3F)c12` [Example 31, 1-(5-(9-(4-(4-((1-(((4-(3,8-diazabicyclo[3.2.1]octan-3-yl)-7-(8-ethynyl-7-fluoro-3-hydroxynaphthalen-1-yl)-8-fluoropyrido[4,3-d]pyrimidin-2-yl)oxy)methyl)cyclopropyl)methyl)piperazin-1-yl)butyl)-3-azaspiro[5.5]undecane-3-carbonyl)-2-chlorophenyl)dihydropyrimidine-2,4(1H,3H)-dione], the values for the IC50 in assay [5] (numeric values) and in assay [6] (numeric values) were 5.62 nM and 22.2 nM, respectively.
For the molecule `C#Cc1c(F)ccc2cc(O)cc(-c3ncc4c(N5CC6CCC(C5)N6)nc(OCC5(CN6CCN(CC7CCC8(CC7)CCN(C(=O)c7ccc(C)c(N9CCC(=O)NC9=O)c7)CC8)CC6)CC5)nc4c3F)c12` [Example 36, 1-(5-(9-((4-((1-(((4-(3,8-diazabicyclo[3.2.1]octan-3-yl)-7-(8-ethynyl-7-fluoro-3-hydroxynaphthalen-1-yl)-8-fluoropyrido[4,3-d]pyrimidin-2-yl)oxy)methyl)cyclopropyl)methyl)piperazin-1-yl)methyl)-3-azaspiro[5.5]undecane-3-carbonyl)-2-methylphenyl)dihydropyrimidine-2,4(1H,3H)-dione], the IC50 in assay [4] is 1.19 nM.
Turning to `C#Cc1c(F)ccc2cc(O)cc(-c3ccc4c(N5CC6CCC(C5)N6)nc(OCC5(CN6CCN(CC7CCC8(CC7)CCN(C(=O)c7ccc(C)c(N9CCC(=O)NC9=O)c7)CC8)CC6)CC5)nc4c3F)c12` [Example 42, 1-(5-(9-((4-((1-(((4-(3,8-diazabicyclo[3.2.1]octan-3-yl)-7-(8-ethynyl-7-fluoro-3-hydroxynaphthalen-1-yl)-8-fluoroquinazolin-2-yl)oxy)methyl)cyclopropyl)methyl)piperazin-1-yl)methyl)-3-azaspiro[5.5]undecane-3-carbonyl)-2-methylphenyl)dihydropyrimidine-2,4(1H,3H)-dione], the DC50 is 11.8 nM at KRAS-G12D [1], 0.22 nM on KRAS-G12D [2] and 7.46 nM on KRAS-G12D [3]. The Dmax amounted to 77.4% at KRAS-G12D [1], 100% on KRAS-G12D [2] and 100% at KRAS-G12D [3]. The values for the IC50 in assay [5] (numeric values), in assay [6] (numeric values) and in assay [4] were 1.75 nM, 8.41 nM and 2.96 nM, respectively.
As to `C#Cc1cccc2cc(O)cc(-c3ncc4c(N5CC6CCC(C5)N6)nc(OCC5(CN6CCN(CC7CCC8(CC7)CCN(C(=O)c7ccc(Cl)c(N9CCC(=O)NC9=O)c7)CC8)CC6)CC5)nc4c3F)c12` [Example 57, 1-(5-(9-((4-((1-(((4-(3,8-diazabicyclo[3.2.1]octan-3-yl)-7-(8-ethynyl-3-hydroxynaphthalen-1-yl)-8-fluoropyrido[4,3-d]pyrimidin-2-yl)oxy)methyl)cyclopropyl)methyl)piperazin-1-yl)methyl)-3-azaspiro [5.5]undecane-3-carbonyl)-2-chlorophenyl)dihydropyrimidine-2,4(1H,3H)-dione], the DC50 was determined as 0.69 nM on KRAS-G12D [1], 15 nM at KRAS-G12D [2] and 8.95 nM at KRAS-G12D [3]. In addition, the Dmax on KRAS-G12D [1] turned out to be 94.2%; on KRAS-G12D [2] it was 99.5%; at KRAS-G12D [3], 97.3%. For the same molecule, the IC50 in assay [5] (class symbols) was no more than 50 nM; in assay [6] (class symbols), no more than 50 nM; in assay [4] it was 9.88 nM.
`C#Cc1c(F)ccc2cc(O)cc(-c3ncc4c(N5CC6CCC(C5)N6)nc(OCC(C)CN5CCN(CC6CCC7(CC6)CCN(C(=O)c6ccc(OC)c(N8CCC(=O)NC8=O)c6)CC7)CC5)nc4c3F)c12` (stereo not drawn) [Example 84, 1-(5-(9-((4-(3-((4-(3,8-diazabicyclo[3.2.1]octan-3-yl)-7-(8-ethynyl-7-fluoro-3-hydroxynaphthalen-1-yl)-8-fluoropyrido[4,3-d]pyrimidin-2-yl)oxy)-2-methylpropyl)piperazin-1-yl)methyl)-3-azaspiro[5.5]undecane-3-carbonyl)-2-methoxyphenyl)dihydropyrimidine-2,4(1H,3H)-dione]: the DC50 on KRAS-G12D [1] came out at 3.82 nM; on KRAS-G12D [2], 0.71 nM; on KRAS-G12D [3], 1.99 nM. Also, the Dmax is 92.2% on KRAS-G12D [1], 99.6% at KRAS-G12D [2] and 98.6% at KRAS-G12D [3]. For the same molecule, the results for the IC50 in assay [5] (numeric values), in assay [6] (numeric values) and in assay [4] were 2.58 nM, 17 nM and 1.3 nM, respectively.
